Results on 63 molecules are retold here after patent publication US12030876B2, “Aryl hydrocarbon receptor (AHR) agonists and uses thereof” (Ikena Oncology, Inc., priority 2019, dated 2024).

The first test has as its target T1, AHR (Homo sapiens, UniProt P35869).
T1 construct: endogenous in cells; host or cells: HepG2 (human), transfected with a DRE-luciferase reporter only
T1 sequence (P35869 11-848): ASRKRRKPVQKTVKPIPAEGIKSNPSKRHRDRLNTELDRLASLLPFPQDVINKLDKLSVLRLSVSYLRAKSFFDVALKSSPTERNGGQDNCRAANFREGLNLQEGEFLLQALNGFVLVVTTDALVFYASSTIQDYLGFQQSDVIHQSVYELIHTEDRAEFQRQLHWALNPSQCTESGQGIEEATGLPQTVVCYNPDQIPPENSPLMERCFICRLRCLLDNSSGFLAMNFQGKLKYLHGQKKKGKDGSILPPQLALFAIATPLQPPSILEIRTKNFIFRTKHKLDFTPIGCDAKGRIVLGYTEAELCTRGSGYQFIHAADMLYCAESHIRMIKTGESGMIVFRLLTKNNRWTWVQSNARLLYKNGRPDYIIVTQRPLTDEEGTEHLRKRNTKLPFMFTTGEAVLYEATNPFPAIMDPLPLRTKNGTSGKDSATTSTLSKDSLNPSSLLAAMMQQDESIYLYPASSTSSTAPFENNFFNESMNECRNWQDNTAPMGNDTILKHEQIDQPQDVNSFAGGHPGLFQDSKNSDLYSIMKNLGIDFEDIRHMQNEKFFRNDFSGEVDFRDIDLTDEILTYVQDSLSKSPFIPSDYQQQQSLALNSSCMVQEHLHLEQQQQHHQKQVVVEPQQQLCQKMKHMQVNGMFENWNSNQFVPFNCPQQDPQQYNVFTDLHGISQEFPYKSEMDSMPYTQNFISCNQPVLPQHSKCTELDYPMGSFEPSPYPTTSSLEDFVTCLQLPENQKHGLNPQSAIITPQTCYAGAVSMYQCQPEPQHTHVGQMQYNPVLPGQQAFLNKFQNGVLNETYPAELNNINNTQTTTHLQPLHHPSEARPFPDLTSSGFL
In words: DRE-Luciferase Reporter Assay, HepG2 (agonist). The note with it: DRE-Luc HepG2 - Agonist: Average EC50 (μM), HepG2, Table 2. Type of test: cell-based. As for the experimental part:
DRE-Luciferase Reporter Assay
AHR binds to Dioxin Responsive Elements (DRE) upstream of genes that it activates. One measure of AHR activity is activation of a reporter gene, such as luciferase, downstream of one or multiple DRE elements. Luciferase activity reflects activation and inhibition of AHR in the cells expressing this reporter.
Murine Hepa1-6 or Hepa-1c1c7 or other murine cell line with a DRE-luciferase reporter either stably or transiently transfected are plated in media in plates (96-well, 384-well or other plates) and incubated overnight at 37 C in a CO2 incubator. Likewise, human HepG2 or other human cell line with a DRE-luciferase reporter either stably or transiently transfected are plated in media in plates (96-well, 384-well or other plates) and incubated overnight at 37 C in a CO2 incubator.
The next day, an AHR agonist compound is added. Cells are incubated for 6, 16 or 24 hours or another time point and then lysed for determination of luciferase activity as a read-out of the AHR activation. Luciferase can be measured with a commercial kit such as the Promega Luciferase kit or any kit or reagents that provide the luciferin substrate for measuring luciferase activity. The level of luciferase with only activating ligand (e.g. such as TCDD, kynurenine, ITE (2-(1H-indole-3-ylcarbonyl)-4-thiazolecarboxylic methyl ester), VAF347, BNF (beta-naphthoflavone), ICZ (6-formylindolo(3,2-b) carbazole or other AHR ligands) added is the maximum signal while the luciferase with no ligand is the minimum signal. EC50s can be determined as the concentration which activates half of the maximum luciferase activity.
On the technique in general: In a reporter assay the amount or activity of a reporter protein is the signal.
Regarding `c1ccc(Nc2nc(-c3ccccc3)cs2)cc1` [Compound P-14], the half-maximal effective concentration (EC50) was above 1 µM.

The test is the same for the next values; noted with them: DRE-Luc HepG2 - Agonist: Average EC50 (μM), HepG2, Table 3.
The molecule `O=C(O)c1cccc(Nc2nc(-c3cccc([N+](=O)[O-])c3)cs2)c1` [I-81] returned an EC50 above 1 µM.

The test is the same for the next values; noted with them: HepG2, Table 2; read-out: DRE-Luc HepG2 - Agonist: Average EC50.
In the case of `C[N+](C)(CCOCCN(c1cccc(C(F)(F)F)c1)c1nc(-c2cccc(Cl)c2)cs1)CC(=O)O` [I-51], the concentration giving a half-maximal response (EC50) was above 1 µM.

As to `C[N+](C)(CCO)CCOCCN(c1cccc(C(F)(F)F)c1)c1nc(-c2cccc(Cl)c2)cs1` [I-45], the EC50 fell in the range of 0.1 to 1 µM. Same read-out and setting: the value for `C[N+](C)(C)CCOc1cccc(-c2cnc(Nc3ccc(C(F)(F)F)cc3)o2)c1` [I-72] was above 1 µM. As for `CN(C)CCOc1ccc(-c2cnc(Nc3ccc(C(F)(F)F)cc3)o2)cc1` [I-74], the EC50 is above 1 µM. The same measure, in the same setting: the value for `FC(F)(F)c1ccc(Nc2nc(-c3cccc(Cl)c3)co2)cc1` [I-63] was 0.1 to 1 µM; that for `FC(F)(F)c1ccc(Nc2nnc(-c3cccc(Cl)c3)o2)cc1` [I-64] was above 1 µM; that for `C[N+](C)(C)CCOc1ccc(-c2cnc(Nc3ccc(C(F)(F)F)cc3)o2)cc1` [I-73] was above 1 µM. Same read-out and setting: the value for `Oc1cccc(-c2cnc(Nc3ccc(C(F)(F)F)cc3)o2)c1` [I-68] was above 1 µM. The same measure, in the same setting: the value for `Cn1cc(-c2cccc(Cl)c2)nc1Nc1cccc(C(F)(F)F)c1` [I-70] was above 1 µM. With `C[N+](C)(CCO)CCOCCN(c1ccc(C(F)(F)F)cc1)c1nc(-c2cccc(Cl)c2)cs1` [I-52], the EC50 is above 1 µM. The same measure, in the same setting: the value for `Oc1ccc(-c2cnc(Nc3ccc(C(F)(F)F)cc3)o2)cc1` [I-67] was above 1 µM. For the molecule `FC(F)(F)c1ccc(Nc2ncc(-c3ccccc3Cl)o2)cc1` [I-62], the EC50 lay within 0.1 to 1 µM. On the same count and under the same terms, the value for `Oc1ccccc1-c1cnc(Nc2ccc(C(F)(F)F)cc2)o1` [I-75] was above 1 µM; that for `CN(C)CCOc1cccc(-c2cnc(Nc3ccc(C(F)(F)F)cc3)o2)c1` [I-69] was above 1 µM. The same measure, in the same setting: the value for `Cn1c(-c2cccc(Cl)c2)cnc1Nc1cccc(C(F)(F)F)c1` [I-71] was above 1 µM; that for `FC(F)(F)c1ccc(Nc2nnc(-c3cccc(Cl)c3)[nH]2)cc1` [I-65] was above 1 µM.

The test is the same for the next values; noted with them: HepG2, Table 3; read-out: DRE-Luc HepG2 - Agonist: Average EC50.
As for `N#Cc1cccc(-c2cc(Nc3cccc(C(F)(F)F)c3)on2)c1` [I-138], the EC50 was above 1 µM. Still for that read-out and setting: the value for `C[N+]1(C)CCN(C(=O)c2cccc(Nc3nc(-c4cccc([N+](=O)[O-])c4)cs3)c2)CC1` [I-88] was above 1 µM; that for `NC(=O)c1cccc(-c2csc(Nc3cncc(C(F)(F)F)c3)n2)c1` [I-105] was above 1 µM. In the case of `N#Cc1cc(Cl)cc(-c2csc(Nc3cccc(C(F)(F)F)c3)n2)c1` [I-80], the EC50 lay within 0.01 to 0.1 µM. Still for that read-out and setting: the value for `O=C(O)c1cncc(-c2csc(Nc3cccc(C(F)(F)F)c3)n2)c1` [I-79] was above 1 µM; that for `O=c1cc(-c2cc(Nc3cccc(C(F)(F)F)c3)no2)cc[nH]1` [I-139] was 0.1 to 1 µM.

On to `NC(=O)c1cccc(-c2csc(Nc3cccc(C(F)(F)F)n3)n2)c1` [I-119], for which the EC50 is below 0.01 µM. For `[O-][n+]1cccc(-c2noc(Nc3cccc(C(F)(F)F)c3)n2)c1` [I-150], the EC50 is above 1 µM. On the same count and under the same terms, as for `N#Cc1cccc(-c2cc(Nc3cccc(C(F)(F)F)c3)no2)c1` [I-151], the figure is above 1 µM; as for `NC(=O)c1cc(-c2csc(Nc3cccc(C(F)(F)F)c3)n2)cc([N+](=O)[O-])c1` [I-101], above 1 µM; as for `O=C(O)c1cccc(Nc2nc(-c3ccc[n+]([O-])c3)cs2)c1` [I-116], above 1 µM. Still for that read-out and setting: as for `O=c1cc(-c2noc(Nc3cccc(C(F)(F)F)c3)n2)cc[nH]1` [I-135], the figure is above 1 µM; as for `C[N+](C)(C)CCNC(=O)N(c1cccc(C(F)(F)F)c1)c1nc(-c2ccc[n+]([O-])c2)cs1` [I-118], 0.1 to 1 µM. Still for that read-out and setting: the value for `[O-][n+]1cccc(-c2cc(Nc3cccc(C(F)(F)F)c3)on2)c1` [I-140] was above 1 µM. On to `N#Cc1cc(-c2csc(Nc3cccc(C(F)(F)F)c3)n2)cc([N+](=O)[O-])c1` [I-115], for which the EC50 was above 1 µM. Same read-out and setting: the value for `COC(=O)c1cccc(-c2csc(Nc3cccc(C(F)(F)F)c3)n2)c1` [I-106] was 0.1 to 1 µM; that for `COC(=O)c1cncc(-c2csc(Nc3cccc(C(F)(F)F)c3)n2)c1` [I-102] was above 1 µM; that for `O=c1cc(-c2cc(Nc3cccc(C(F)(F)F)c3)on2)cc[nH]1` [I-137] was above 1 µM. Regarding `N#Cc1cccc(-c2csc(Nc3cccc(C(=O)O)c3)n2)c1` [I-114], the half-maximal effective concentration (EC50) was above 1 µM. Still for that read-out and setting: the value for `COC(=O)c1cc(C#N)cc(-c2csc(Nc3cccc(C(F)(F)F)c3)n2)c1` [I-113] was above 1 µM; that for `[O-][n+]1cccc(-c2csc(Nc3cncc(C(F)(F)F)c3)n2)c1` [I-122] was above 1 µM; that for `COC(=O)c1cc(-c2csc(Nc3cccc(C(F)(F)F)c3)n2)cc([N+](=O)[O-])c1` [I-108] was 0.1 to 1 µM.

`COc1cc(-c2csc(Nc3cccc(SC)c3)n2)ccn1` [I-141]: the EC50 is above 1 µM. Regarding `O=C(O)c1cc(-c2csc(Nc3cccc(C(F)(F)F)c3)n2)cc([N+](=O)[O-])c1` [I-78], the EC50 is above 1 µM. On to `NC(=O)c1cc(-c2csc(Nc3cccc(C(F)(F)F)c3)n2)c[n+]([O-])c1` [I-99], for which the EC50 is above 1 µM. Still for that read-out and setting: the value for `C[n+]1cccc(-c2csc(N(C(=O)NCCC[N+](C)(C)C)c3cccc(C(F)(F)F)c3)n2)c1` [I-98] was 0.1 to 1 µM. Same read-out and setting: as for `COC(=O)c1cccc(Nc2nc(-c3cccc(C#N)c3)cs2)c1` [I-104], the figure is above 1 µM. On the same count and under the same terms, as for `O=c1cc(-c2nc(Nc3cccc(C(F)(F)F)c3)no2)cc[nH]1` [I-133], the figure is 0.1 to 1 µM; as for `O=[N+]([O-])c1cccc(-c2csc(Nc3ccc(C(F)(F)F)cc3)n2)c1` [I-84], 0.01 to 0.1 µM. Consider `CSc1cccc(Nc2nc(-c3cc[nH]c(=O)c3)cs2)c1` [I-142], for which the EC50 was above 1 µM.

Consider `[O-][n+]1cccc(-c2cnc(Nc3cccc(C(F)(F)F)c3)o2)c1` [I-123], for which the concentration for a half-maximal effect (EC50) is above 1 µM. Same read-out and setting: the value for `COC(=O)c1cc(-c2csc(Nc3cccc(C(F)(F)F)c3)n2)c[n+]([O-])c1` [I-127] was 0.1 to 1 µM; that for `NC(=O)c1cccc(Nc2nc(-c3cccc([N+](=O)[O-])c3)cs2)c1` [I-82] was above 1 µM. Take `[O-][n+]1cccc(-c2csc(Nc3ccc(C(F)(F)F)cc3)n2)c1` [I-129]: the EC50 was 0.1 to 1 µM. On the same count and under the same terms, as for `CN(CCNC(=O)N(c1cccc(C(F)(F)F)c1)c1nc(-c2cccc(Cl)c2)cs1)CC(=O)O` [I-86], the figure is below 0.01 µM. On the same count and under the same terms, as for `CSc1cccc(-c2csc(Nc3cccc(C(F)(F)F)c3)n2)c1` [I-132], the figure is above 1 µM; as for `[O-][n+]1cccc(-c2nc(Nc3cccc(C(F)(F)F)c3)no2)c1` [I-134], above 1 µM; as for `O=[N+]([O-])c1cccc(-c2csc(Nc3cccc(S(=O)(=O)O)c3)n2)c1` [I-103], above 1 µM.

In the case of `N#Cc1cc(C(=O)O)cc(-c2csc(Nc3cccc(C(F)(F)F)c3)n2)c1` [I-95], the EC50 is above 1 µM. Same read-out and setting: as for `[O-][n+]1cccc(-c2cc(Nc3cccc(C(F)(F)F)c3)no2)c1` [I-131], the figure is above 1 µM. For the molecule `O=c1cc(-c2cnc(Nc3cccc(C(F)(F)F)c3)o2)cc[nH]1` [I-126], the EC50 is above 1 µM. On the same count and under the same terms, the value for `O=S(=O)(O)c1cccc(-c2csc(Nc3cccc(C(F)(F)F)c3)n2)c1` [I-85] was above 1 µM; that for `O=C(O)c1cc(-c2csc(Nc3cccc(C(F)(F)F)c3)n2)c[n+]([O-])c1` [I-111] was above 1 µM; that for `N#Cc1cccc(-c2coc(Nc3cccc(C(F)(F)F)c3)n2)c1` [I-124] was above 1 µM.

In the case of `[O-][n+]1ccccc1-c1csc(Nc2cccc(C(F)(F)F)c2)n1` [I-94], the EC50 was above 1 µM.

The EC50 is the concentration needed to bring the measured effect to its halfway point.
